Laboratory results as given in patent publication US12703686B2, “4-Methoxy-2-phenethyl isoindoline-1-one derivative and composition for treating neurological diseases, comprising same” (CNG BIO CO., LTD., priority 2020, dated 2026).

Key:
[1] = system: C6 glioma cells; test: Ability to promote increase of nerve growth factor (NGF) in C6 glioma cells, ELISA; type: cell-based, Rat; details: 10 μM, 24 hours, FIG. 9
Method: In order to measure the amount of nerve growth factor (NGF) produced in the cell medium and to confirm the effect on cell viability when cells were treated with the compounds of the present invention, the following experiments were performed.
Rat astrocyte-derived C6 glioma cells were dispensed in DMEM culture solution at a concentration of 1×10^5 cells/well in a 24 well plate and stabilized overnight, and then treated with the compounds of Formulas 3, 6, 7, and 8 at a concentration of 10 μM, and reacted in a 37° C. incubator for 24 hours. The treated medium was collected and centrifuged, and then absorbance was measured using an enzyme linked immunoassay kit (ELISA kit).

[2] = system: BV2 cells (microglia); test: NO production in LPS-stimulated BV2 cells (Griess reaction), antineuritic activity; type: cell-based; details: 10 NM, 100 ng/ml LPS for 24 hours, FIG. 13
Method: In order to confirm the change in NO production and the effect on cell viability when BV2 cells were treated with the compounds of the present invention, the following experiments were performed. L-NMMA (NG-monomethyl-L-arginine), an NO synthesis inhibitor, was used as a positive control group.
Analysis of NO production for evaluation of antineuritic activity BV2 cells (microglia) were dispensed in DMEM culture solution at a concentration of 6×10^4 cells/well in a 96 well plate, and then treated with the compounds of Formulas 6, 7, and 8 at a concentration of 10 NM, and incubated for 24 hours. After 24 hours, each sample was treated with a concentration of 10 NM, reacted for 1 hour, and then stimulated with 100 ng/ml of LPS for 24 hours. The production of nitrite, a soluble oxidation product of NO (nitric oxide), was measured in the culture medium through the Griess reaction.

C=CCc1c(O)cc(OC)c2c1C(=O)N(CCc1ccccc1)C2 [Formula 3, 7-allyl-6-hydroxy-4-methoxy-2-phenethyl isoindolin-1-one]
nerve growth factor produced in the cell medium [1]: significantly excellent

COc1cc(O)c(CCO)c2c1CN(CCc1ccccc1)C2=O [Formula 6, 6-hydroxy-7-(2-hydroxyethyl)-4-methoxy-2-phenethyl isoindolin-1-one]
NO production (nitrite) compared to untreated control group [2]: reduced

COc1cc(O)c(CCN(C)C)c2c1CN(CCc1ccccc1)C2=O [Formula 7, 7-(2-(dimethylamino)ethyl)-6-hydroxy-4-methoxy-2-phenethyl isoindolin-1-one]
NO production (nitrite) compared to untreated control group [2]: reduced | nerve growth factor produced in the cell medium [1]: significantly excellent

COc1cc(O)c(CCCO)c2c1CN(CCc1ccccc1)C2=O [Formula 8, 6-hydroxy-7-(3-hydroxypropyl)-4-methoxy-2-phenethyl isoindolin-1-one]
NO production (nitrite) compared to untreated control group [2]: reduced
